Common to all, as to test: NCI-60 cell line screen, 48 h
The test system of experiment [1] is HOP-62.
The subject of experiment [2] is U-251.
The test system of experiment [3] is OVCAR-4.
For experiment [4], the system named is UACC-62.
The test system of experiment [5] is UO-31.
For experiment [6], the system named is SF-539.
For experiment [7], the system named is HCT-116.
For experiment [8], the system named is NCI-H226.
In experiment [9] the test system is SNB-75.
Experiment [10] concerns OVCAR-3.
In experiment [11] the test system is OVCAR-8.
For experiment [12], the system named is COLO 205.
In experiment [13] the test system is SNB-19.
Experiment [14] deals with PC-3.
For experiment [15], the system named is UACC-257.
Experiment [16] relates to MCF7.
Experiment [17] relates to MDA-MB-435.
Experiment [18] deals with NCI-H460.
The subject of experiment [19] is HCC 2998.

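In this assay, cells in 96-well plates receive the compound at five concentrations for 48 hours. Endpoints are linearly interpolated between the surrounding concentrations. GI50 marks 50% less growth.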 Active and inactive are the calls of the source. Rule as the data show it: active = GI50 up to about 1.1 µM and inactive = higher. Some results are limits rather than exact numbers.

The text below walks through data of ChEMBL document CHEMBL1201862, “PubChem BioAssay data set” (2004).

For the compound `Cn1c(CC(O)c2nc3ccccc3n2C)nc2ccccc21` (stereo not given), the GI50 in experiment [1] is > 12.3 µM (inactive); in experiment [2], > 28 µM (inactive); in experiment [3], > 23.3 µM (inactive); in experiment [4], > 34.8 µM (inactive); in [5] it was > 6.37 µM (inactive); in [6], > 39.1 µM (inactive). Also, the GI50 was > 23.7 µM (inactive) in experiment [7]; > 48.3 µM (inactive) in [8]; > 100 µM (inactive) in [9]; > 13.1 µM (inactive) in experiment [10]; > 27 µM (inactive) in experiment [11]; > 28.4 µM (inactive) in [12]. Also, the GI50 in [13] is > 36.6 µM (inactive); in experiment [14], > 29.2 µM (inactive); in experiment [15], > 19.1 µM (inactive); in experiment [16], > 15.9 µM (inactive); in experiment [17] it was > 18.5 µM (inactive); in [18], > 27.4 µM (inactive). Moreover, the GI50 in experiment [19] was > 100 µM (inactive).
In the case of `CCOC(=O)/C=C(/C(=O)OCC)n1ccc(=O)n(/C(=C/C(=O)OCC)C(=O)OCC)c1=O`, the GI50 in [1] was 25.9 µM (inactive); in experiment [2] it was 14.6 µM (inactive); in experiment [3], 9.93 µM (inactive); in [4] it was 14.8 µM (inactive); in experiment [5], 15.5 µM (inactive); in [6] it was 18.1 µM (inactive). Further, the GI50 in experiment [7] is 2.39 µM (inactive); in experiment [8], 8.07 µM (inactive); in [9], 16.9 µM (inactive); in experiment [10], 6.19 µM (inactive); in [11], 8.79 µM (inactive); in [12], 1.95 µM (inactive). The GI50 in [13] is 20.3 µM (inactive); in experiment [14] it was 15 µM (inactive); in experiment [15], 10.6 µM (inactive); in experiment [16], 6.4 µM (inactive); in experiment [17] it was 8.34 µM (inactive); in [18], 17.3 µM (inactive). In addition, the GI50 in experiment [19] was 18.4 µM (inactive).
For `Oc1ccc(-c2c3ccccc3c(-c3ccc(OCCBr)cc3)c3ccccc23)cc1`, the GI50 in experiment [1] is 24 µM (inactive); in experiment [2], 32.3 µM (inactive); in experiment [3] it was 24.2 µM (inactive); in experiment [4] it was 19.7 µM (inactive); in experiment [5], 67.6 µM (inactive); in [6] it was 13.9 µM (inactive). For the same compound, the GI50 in experiment [7] was 37.2 µM (inactive); in experiment [8], 20 µM (inactive); in experiment [9], 25.1 µM (inactive); in experiment [10], 14.6 µM (inactive); in experiment [11], 22 µM (inactive); in experiment [12], 31.2 µM (inactive). The GI50 in experiment [13] is 29.4 µM (inactive); in experiment [14], 27.4 µM (inactive); in experiment [15], 24.2 µM (inactive); in [16] it was 14.4 µM (inactive); in experiment [17], 21.7 µM (inactive); in [18], 52.6 µM (inactive). The GI50 in [19] was 44.2 µM (inactive).
`O=C(CN(c1ccc(S(=O)(=O)O)cc1)c1ccc(S(=O)(=O)O)cc1)Nn1cnc2ccc(S(=O)(=O)N(c3ccc(S(=O)(=O)O)cc3)c3ccc(S(=O)(=O)O)cc3)cc2c1=O`: the GI50 in experiment [1], in experiment [2], in experiment [3], in experiment [4], in [5] and in experiment [6] was > 100 µM (inactive) in each case. The GI50 in experiment [7], in [8], in experiment [9], in experiment [10], in experiment [11] and in experiment [12] was > 100 µM (inactive) each time. In addition, the GI50 in [13], in experiment [14], in experiment [15], in experiment [16], in experiment [17] and in [18] was > 100 µM (inactive) throughout. In [19], the GI50 is > 100 µM (inactive).
Regarding `COc1ccc(OC)c(NCC(=O)Nn2cnc3ccc(S(=O)(=O)Nc4cc(OC)ccc4OC)cc3c2=O)c1`, the GI50 was > 100 µM (inactive) in [1]; > 100 µM (inactive) in [2]; > 100 µM (inactive) in [3]; > 100 µM (inactive) in experiment [4]; 75.7 µM (inactive) in experiment [5]; > 100 µM (inactive) in [6]. The GI50 is 32.6 µM (inactive) in experiment [7]; > 100 µM (inactive) in experiment [8]; > 100 µM (inactive) in experiment [9]; > 100 µM (inactive) in experiment [10]; > 100 µM (inactive) in experiment [11]; > 100 µM (inactive) in experiment [12]. Besides, the GI50 in [13] is > 100 µM (inactive); in experiment [14], 37.5 µM (inactive); in [15] it was 82.6 µM (inactive); in [16] it was > 100 µM (inactive); in experiment [17], 29.5 µM (inactive); in experiment [18] it was 86.3 µM (inactive). The GI50 in experiment [19] was 37.2 µM (inactive).
Regarding `COc1cc(C2c3cc4c(cc3OC3(OC)COC(=O)C23)OCO4)cc(OC)c1OC(C)=O` (stereo not given), the GI50 in [1] is 0.8 µM (active); in [2], 2.13 µM (inactive); in experiment [3] it was > 57.8 µM (inactive); in [4], 4.78 µM (inactive); in experiment [5], 6.28 µM (inactive); in experiment [6], 0.374 µM (active). Also, the GI50 in [7] was 0.785 µM (active); in experiment [8], 1.13 µM (inactive); in experiment [9] it was 0.384 µM (active); in experiment [10], 1.3 µM (inactive); in [11], 2.52 µM (inactive); in experiment [12], 3.87 µM (inactive). Besides, the GI50 in experiment [13] was 5.94 µM (inactive); in experiment [14], 0.429 µM (active); in experiment [15], > 39.4 µM (inactive); in experiment [16], 1.07 µM (active); in experiment [17], 0.331 µM (active); in experiment [18] it was 0.705 µM (active). Further, the GI50 in experiment [19] is 2.75 µM (inactive).
With `CN1N=C(c2ccccc2)c2cc(Cl)ccc2N=C1N/N=C/c1ccc(N(C)C)cc1`, the GI50 in [1], in [2], in [3], in experiment [4], in [5] and in experiment [6] was > 100 µM (inactive) throughout. Moreover, the GI50 in [7] is > 100 µM (inactive); in experiment [8], 58.1 µM (inactive); in experiment [9], > 100 µM (inactive); in [10], > 100 µM (inactive); in experiment [11], > 100 µM (inactive); in experiment [12], > 100 µM (inactive). In addition, the GI50 in experiment [13] was > 100 µM (inactive); in experiment [14], 58.5 µM (inactive); in experiment [15], > 100 µM (inactive); in experiment [16] it was > 100 µM (inactive); in [17], > 100 µM (inactive); in experiment [18] it was > 100 µM (inactive). In addition, the GI50 in [19] was > 100 µM (inactive).
Take `CC(=O)OCC1OC(n2c3c(c(-c4ccco4)c(C#N)c2=S)CCCC3)C(OC(C)=O)C(OC(C)=O)C1OC(C)=O` (stereo not given): the GI50 is 13.3 µM (inactive) in [1]; > 10 µM (inactive) in experiment [2]; 9.16 µM (inactive) in experiment [3]; > 10 µM (inactive) in experiment [4]; 22.6 µM (inactive) in [5]; 17.6 µM (inactive) in [6]. Moreover, the GI50 in experiment [7] was 21.3 µM (inactive); in experiment [8] it was 21.9 µM (inactive); in [9] it was 8.2 µM (inactive); in experiment [10], 23.2 µM (inactive); in [11] it was 31.6 µM (inactive); in experiment [12], > 31.6 µM (inactive). The GI50 in [13] is 15.6 µM (inactive); in experiment [14], > 10 µM (inactive); in experiment [15], > 31.6 µM (inactive); in experiment [16], > 76.2 µM (inactive); in [17], > 100 µM (inactive); in experiment [18], 22.9 µM (inactive). Further, the GI50 in experiment [19] was > 10 µM (inactive).
With `CC1C2Cc3ccc(O)cc3C1(C)CCN2C` (stereo not given), the GI50 in [1], in experiment [2], in [3], in experiment [4], in [5] and in experiment [6] was > 100 µM (inactive) each time. The GI50 in experiment [7] is > 100 µM (inactive); in [8], > 100 µM (inactive); in experiment [9] it was 86.7 µM (inactive); in experiment [10], > 100 µM (inactive); in experiment [11], > 100 µM (inactive); in experiment [12] it was > 100 µM (inactive). Further, the GI50 in [13], in experiment [14], in experiment [15], in [16], in experiment [17] and in experiment [18] was > 100 µM (inactive) in each case. Further, the GI50 in [19] was > 100 µM (inactive).
For `CC1(C)COC2=C(C1)C(=O)c1ccccc1C2=O`, the GI50 was 1.99 µM (inactive) in experiment [1]; 1.43 µM (inactive) in experiment [2]; 1.53 µM (inactive) in experiment [3]; 1.09 µM (active) in experiment [4]; 1.04 µM (active) in experiment [5]; 1.54 µM (inactive) in [6]. For the same compound, the GI50 in [7] was 0.449 µM (active); in [8] it was 2.24 µM (inactive); in [9] it was 1.63 µM (inactive); in [10], 0.75 µM (active); in [11], 0.493 µM (active); in experiment [12], 2.2 µM (inactive). Moreover, the GI50 in [13] is 1.97 µM (inactive); in [14], 1.55 µM (inactive); in experiment [15], 0.828 µM (active); in experiment [16] it was 1.21 µM (inactive); in [17], 0.195 µM (active); in experiment [18], 1.91 µM (inactive). In addition, in experiment [19], the GI50 was 1.7 µM (inactive).
